Structures can show the parent of a compound that is named as a salt. Where two headings read alike, the source gives them in different places.
Assays:
[1] = Acute oral toxicity (LD50) in mice; assay type: in vivo; conditions: mouse, in vivo
Experimental: (§1) The compounds of Examples I to VIII were tested to evaluate their pharmacological effectiveness. Specifically, their toxicity (LD50), cholesterol-lowering effectiveness (E1 D25) and their liver weight increasing activity (E2 D25) were tested on animals according to standard methods.
(§2) At least three different doses were tested for each LD50 value given and 10 animals were used for testing of each dose; five test animals were kept in one standard "Macrolon" cage. The test substance was administered as a suspension in aqueous (3-5% by weight) Gum Arabic via a probe into the stomach in quantities of 10 ml of the suspension per kilogram body weight. As is conventional, LD50 is that dose of the test substance in mg/kg body weight which causes death of 50% of the test animals within the observation period. Higher LD50 values indicate lower toxicity and vice versa.

mice [2] = assay: Acute oral toxicity (LD50) in mice; assay type: in vivo; conditions: conclusion from Table I
Experimental: as §1, §2

[3] = tested on: cholesterol level in the blood serum; assay: Cholesterol-lowering effectiveness (E1 D25) in rats; assay type: in vivo, male Whistar rats; conditions: for ED25: Rattus norvegicus, male Whistar rats, oral, daily, two weeks (5 + 5 days), vs control, read-out: E1 D25 (dose causing 25% reduction of average serum cholesterol level); for cholesterol lowering effectiveness (in words): conclusion from Table I
Experimental: as §1
(B) The effective dose E1 D25 is the amount of test substance in milligram per kilogram body weight of the test animals (male Whistar rats, 100-200 g body weight, eight to ten animals per dosis) that causes a 25% by weight reduction of the average cholesterol level in the blood serum of test animals that had received the test substance, compared with the cholesterol level in the blood serum of the control group. The test substances were administered orally via a probe in the manner set forth above for the LD50 toxicity, i.e. as suspension in aqueous Gum Arabic. Each test animal was administered daily with 10 ml of the suspension per kilogram body weight. The animals of the control group were administered daily with each 10 ml of the aqueous Gum Arabic per kilogram of body weight without the test substance. The daily dose was administered for 5 subsequent days, resumed after a two-day week-end interval and continued for 5 additional days. After a total test period of two weeks, both the test and the control animals were sacrificed and the blood serum was recovered from the bodies for analysis.
Cholesterol analysis of the serum recovered was carried out according to the standard method of M. Richterich (cf. Monography by M. Richterich, "Klinische Chemie," Verlag Karger, Basel/New York, 1965, p. 232) and the results were evaluated by means of a cholesterol level/dose diagram. The E1 D25 values were taken from the diagram thus obtained. Lower E1 D25 values indicate higher activity, and vice versa.

[4] = tested on: liver weight/body weight ratio (relative liver weight); set-up: species or system male Whistar rats; conditions: rat, in vivo
Experimental: as §1
(C) The effective dose E2 D25 is the amount of test substance in milligram per kilogram body weight of the test animals (male Whistar rats, 100-200 g body weight, eight to ten animals per dose) that causes a 25% increase of the liver weight/body weight ratio (relative liver weight) of test animals that had received that test substance, compared with the liver weight/body weight ratio of the control group. Administration was effected substantially in the manner described above for E1 D25. The relative liver weight was determined from the bodies of the sacrificed animals and the control animals. The actual increase of the relative liver weight was evaluated graphically and the E2 D25 was obtained by interpolation from the graph.

mice [5] = conditions: background section; cited from earlier work
[6] = mice, single oral dose, 7 days observation or longer, read-out: LD50

| SMILES | LD50 at 168 h ([1]; po, read-out: LD50) | ED25 [3] | cholesterol lowering effectiveness (in words) [3] | other results |
| --- | --- | --- | --- | --- |
| CCOC(=O)C(C)(CC)Oc1ccccc1Cc1ccc(Cl)cc1 (racemic) [Example I, ethyl D,L-2-methyl-2-[o-(p'-chlorobenzyl)-phenoxy]butyrate] | > 10000 mg/kg | ~10 mg/kg | high cholesterol lowering effectiveness | toxicity (in words) (mice [2]): low toxicity; liver enlargement activities (in words) [4]: low or very low liver enlargement activities |
| CCCC(C)(Oc1ccccc1Cc1ccc(Cl)cc1)C(=O)OCC (racemic) [Example II, ethyl D,L-2-methyl-2-[o-(p'-chlorobenzyl)-phenoxy]-valerate] | > 10000 mg/kg | ~40 mg/kg |  |  |
| CCC(C)(Oc1ccccc1Cc1ccc(Cl)cc1)C(=O)OCc1cccnc1 (racemic) [Example III, D,L-2-methyl-2-[o-(p'-chlorobenzyl)-phenoxy]-butyric acid-(3-oxymethyl-pyridine)-ester hydrochloride] | > 3000 mg/kg | ~10 mg/kg |  |  |
| CCOC(=O)C(C)(C)Oc1ccccc1Cc1ccc(Cl)cc1 [Example IV, ethyl 2-methyl-2-[o-(p'-chlorobenzyl)-phenoxy]propionate] | > 10000 mg/kg | ~90 mg/kg |  |  |
| CC(C)(Oc1ccccc1Cc1ccc(Cl)cc1)C(=O)OCc1cccnc1 [Example V, 2-methyl-2-[o-(p'-chlorobenzyl)-phenoxy]-propionic acid-(3-oxymethyl-pyridine)-ester hydrochloride] |  |  |  | LD50 at 168 h [1, 6]: > 3000 mg/kg |
| CCOC(=O)C(C)(CC)Oc1cccc(Cc2ccc(Cl)cc2)c1 (stereo not drawn) [Example VIII] |  | 40 mg/kg |  |  |
| CCOC(=O)C(C)Oc1ccccc1Cc1ccc(Cl)cc1 (stereo not drawn) [Example VII] | > 3000 mg/kg | 100 mg/kg | reduced cholesterol lowering effect |  |
| CCOC(=O)COc1ccccc1Cc1ccc(Cl)cc1 [Example VI] | 3000 mg/kg | 300 mg/kg | reduced cholesterol lowering effect |  |
| CCOC(=O)C(C)(CC)Oc1ccc(Cc2ccc(Cl)cc2)cc1 (stereo not drawn) [Substance A, ethyl ester of 2methyl-2-4(4chlorobenzyl)-phenoxy-butyric acid, reference compound] |  | 12.1 mg/kg |  | LD50 at 168 h ([1]; po): 8000 mg/kg |
| CCOC(=O)C(C)(C)Oc1ccc(Cl)cc1 [Substance B, Ethyl p-chlorophenoxyisobutyrate, reference compound] |  | 151 mg/kg |  | LD50 at 168 h [1, 6]: 2350 mg/kg; toxicity (in words) (mice [5]): relatively high toxicity |

Source: US4214095A, “Chlorobenzyl phenoxy alkoxylates” (Siegfried Aktiengesellschaft, priority 1979, dated 1980)
